The record followed here is paper PMC12217461 (Antimicrobial Agents and Chemotherapy, 2025).

Molecules are shown by their SMILES. Where only a bound is given, the exact number is not on record here.

What all share (type): cell-based
In assay [1] the test system is E. coli IMP-14 Mutant 5 (Y233N). In words: MIC broth microdilution, recombinant E. coli. Conditions: Escherichia coli; IMP-14 Y233N; TAN/XER fixed at 4 µg/mL, XER 8 µg/mL in MEM-XER; read-out: Minimal inhibitory concentration. The source says: (§1) Genes encoding different acquired IMP-like enzymes suspected to be resistant to XER (blaIMP-6, blaIMP-7, blaIMP-10, blaIMP-14, blaIMP-26, blaIMP-34, and blaIMP-59) were amplified by PCR, and corresponding amplicons were cloned into plasmid pUCP24 and expressed in E. coli TOP10. The following recombinant E. coli strains producing IMP-1, IMP-4, IMP-19, and NDM-1 were used from a previous study ([16]). […] For that purpose, a list of primers was designed and provided as Table S1. […] The nomenclature used in this study was according to the BBL sequence numbering ([52]).
(§2) To assess the inhibitory potency of XER, susceptibility testing was performed by broth microdilution method, determining the minimal inhibitory concentrations (MICs) of different antibiotics or antibiotic plus β-lactamase inhibitor combinations, including cefepime (FEP), imipenem (IPM), meropenem (MEM), and their combinations with XER (FEP-XER, IPM-XER, and MEM-XER). All data obtained with XER-based combinations were compared with data with TAN-based combinations, FEP-TAN, IPM-TAN, and MEM-TAN ([16]). FEP was purchased from Sigma-Aldrich (Saint-Louis, USA), whereas MEM was from HuiChem (Shanghai, China). […] MICs were determined in triplicate in cation-adjusted Mueller-Hinton (MH) broth (Bio-Rad, Marnes-la-Coquette, France) according to the CLSI guidelines ([53]). The results were interpreted according to the decrease in MIC value for the same antibiotic or combination of the corresponding recombinant strain producing the MBL enzyme. […] In a recent phase I clinical evaluation, XER was combined with cefiderocol. However, as this latter β-lactam substrate is known to be poorly hydrolyzed by IMP enzymes, it was not considered for the evaluation of XER inhibitory activity in this study. Instead, carbapenems were used as a substrate to evaluate the β-lactamase IMP activity in the presence or absence of XER and TAN, as it was deemed more specific for the IMP carbapenemase activity.
A general note: Broth dilution looks for growth in wells or tubes with falling amounts of substance.

The subject of assay [2] is E. coli IMP-14 Mutant 1 (S65G). Description: MIC broth microdilution, recombinant E. coli. The settings on record: Escherichia coli; IMP-14 S65G; TAN/XER fixed at 4 µg/mL, XER 8 µg/mL in MEM-XER; read-out: Minimal inhibitory concentration.
Description: as §1, §2

The subject of assay [3] is E. coli IMP-4. Description: MIC broth microdilution, recombinant E. coli. Conditions: Escherichia coli, IMP4; IMP-4 like; TAN/XER fixed at 4 µg/mL, XER 8 µg/mL in MEM-XER; read-out: Minimal inhibitory concentration.
Description: as §1, §2

The test system of assay [4] is E. coli IMP-59. In words: MIC broth microdilution, recombinant E. coli. Conditions: Escherichia coli, IMP59; IMP-4 like, N233Y; TAN/XER fixed at 4 µg/mL, XER 8 µg/mL in MEM-XER; read-out: Minimal inhibitory concentration.
Description: as §1, §2

Assay [5] concerns E. coli NDM-1. Description: MIC broth microdilution, recombinant E. coli. Conditions: Escherichia coli, NDM1; NDM-1-like; TAN/XER fixed at 4 µg/mL, XER 8 µg/mL in MEM-XER; read-out: Minimal inhibitory concentration.
Description: as §1, §2

Assay [6] relates to E. coli IMP-14. Description: MIC broth microdilution, recombinant E. coli. Conditions: Escherichia coli, IMP14; IMP-2-like, multiple substitutions; TAN/XER fixed at 4 µg/mL, XER 8 µg/mL in MEM-XER; read-out: Minimal inhibitory concentration.
Description: as §1, §2

Assay [7] deals with E. coli IMP-10. In words: MIC broth microdilution, recombinant E. coli. The settings on record: Escherichia coli, IMP10; IMP-1-like, V67F; TAN/XER fixed at 4 µg/mL, XER 8 µg/mL in MEM-XER; read-out: Minimal inhibitory concentration.
Description: as §1, §2

Assay [8] concerns Pseudomonas aeruginosa PA16. Description: microbe, parasite or virus in culture. The settings on record: IMP-29, TAN/XER fixed at 4 µg/mL, XER 8 µg/mL in MEM-XER, read-out: Minimal inhibitory concentration. On the procedure:
(§3) Most isolates and their respective β-lactamase content were characterized by whole-genome sequencing.
as §2

The test system of assay [9] is Enterobacter hormaechei subsp. steigerwaltii SMART 398. Description: microbe, parasite or virus in culture. Conditions: read-out: Minimal inhibitory concentration. The procedure:
as §3, §2

For assay [10], the system named is Pseudomonas aeruginosa PA12. Description: microbe, parasite or virus in culture. Conditions: IMP-13, TAN/XER fixed at 4 µg/mL, XER 8 µg/mL in MEM-XER, read-out: Minimal inhibitory concentration. On the procedure: as §3, §2
For assay [11], the system named is Pseudomonas aeruginosa PA11. Description: microbe, parasite or virus in culture. The settings on record: IMP-10, TAN/XER fixed at 4 µg/mL, XER 8 µg/mL in MEM-XER, read-out: Minimal inhibitory concentration. The procedure: as §3, §2
For assay [12], the system named is Klebsiella pneumoniae SMART 1131. Description: microbe, parasite or virus in culture. Conditions: SMART1131, IMP-6, CTX-M-2, TAN/XER fixed at 4 µg/mL, XER 8 µg/mL in MEM-XER, read-out: Minimal inhibitory concentration. On the procedure:
as §3, §2

Assay [13] concerns Pseudomonas aeruginosa C7. Description: microbe, parasite or virus in culture. The settings on record: IMP-7, TAN/XER fixed at 4 µg/mL, XER 8 µg/mL in MEM-XER, read-out: Minimal inhibitory concentration. On the procedure: as §3, §2
Assay [14] relates to Serratia marcescens SM1. In words: microbe, parasite or virus in culture. The settings on record: IMP-11, TAN/XER fixed at 4 µg/mL, XER 8 µg/mL in MEM-XER, read-out: Minimal inhibitory concentration. The procedure: as §3, §2
Assay [15] deals with Escherichia coli SMART 1735. In words: microbe, parasite or virus in culture. The settings on record: SMART1735, IMP-59, TEM-1, TAN/XER fixed at 4 µg/mL, XER 8 µg/mL in MEM-XER, read-out: Minimal inhibitory concentration. On the procedure: as §3, §2
Assay [16] concerns Klebsiella pneumoniae SMART 882. In words: microbe, parasite or virus in culture. Conditions: for MIC: Klebsiella pneumoniae, SMART882, read-out: Minimal inhibitory concentration. The procedure:
as §3, §2

For assay [17], the system named is Serratia marcescens SMART 2558. In words: microbe, parasite or virus in culture. The settings on record: SMART2558, IMP-8, CTX-M-3, TAN/XER fixed at 4 µg/mL, XER 8 µg/mL in MEM-XER, read-out: Minimal inhibitory concentration. On the procedure: as §3, §2
Assay [18] relates to Enterobacter hormaechei subsp. steigerwaltii SMART 1234. Description: microbe, parasite or virus in culture. Conditions: read-out: Minimal inhibitory concentration. On the procedure:
as §3, §2

In the case of `C[C@@H](O)[C@H]1C(=O)N2C(C(=O)O)=C(SCCN=CN)C[C@H]12` [IPM, imipenem], the MIC came to 32 µg/mL in [1]; 8 µg/mL in assay [2]; 1 µg/mL in assay [3]; 0.5 µg/mL in assay [4]; 2 µg/mL in assay [5]; 1 µg/mL in [6]. Moreover, the MIC in assay [7] is 16 µg/mL; in [8], 16 µg/mL; in [9], 0.5 µg/mL; in [10], 8 µg/mL; in assay [11] it was 256 µg/mL; in [12], at most 0.25 µg/mL. For the same compound, the MIC is 128 µg/mL in assay [13]; at most 0.25 µg/mL in [14]; at most 0.25 µg/mL in assay [15]; at most 0.25 µg/mL in [16]; at most 0.25 µg/mL in [17]; at most 0.25 µg/mL in [18].
On to `CO/N=C(\C(=O)N[C@@H]1C(=O)N2C(C(=O)[O-])=C(C[N+]3(C)CCCC3)CS[C@H]12)c1csc(N)n1` [FEP, cefepime], for which the MIC in assay [1] turned out to be 16 µg/mL; in [2] it was 128 µg/mL; in [3], 8 µg/mL; in assay [4] it was 8 µg/mL; in assay [5], 4 µg/mL; in assay [6] it was 64 µg/mL. Besides, the MIC in assay [7] was 64 µg/mL; in assay [8] it was 16 µg/mL; in assay [9], 128 µg/mL; in assay [10], 128 µg/mL; in [11] it was over 256 µg/mL; in [12] it was 64 µg/mL. The MIC is over 256 µg/mL in assay [13]; 4 µg/mL in assay [14]; 8 µg/mL in [15]; 256 µg/mL in assay [16]; 32 µg/mL in assay [17]; 8 µg/mL in [18].
As for `C[C@@H](O)[C@H]1C(=O)N2C(C(=O)O)=C(S[C@@H]3CN[C@H](C(=O)N(C)C)C3)[C@H](C)[C@H]12` [MEM, meropenem], the MIC in [1] worked out at 1 µg/mL; in [2], 8 µg/mL; in assay [3], 8 µg/mL; in [4] it was 8 µg/mL; in assay [5] it was 2 µg/mL; in [6] it was 4 µg/mL. Moreover, the MIC was 64 µg/mL in assay [7]; 32 µg/mL in assay [8]; 0.5 µg/mL in assay [9]; 16 µg/mL in assay [10]; over 256 µg/mL in [11]; 8 µg/mL in assay [12]. For the same compound, the MIC is 256 µg/mL in [13]; 2 µg/mL in assay [14]; 0.5 µg/mL in [15]; 4 µg/mL in assay [16]; 0.25 µg/mL in assay [17]; 0.5 µg/mL in [18]. Also, the Minimal inhibitory concentration in [16] (IMP-26, CTX-M-15, OXA-1, TAN/XER fixed at 4 µg/mL, XER 8 µg/mL in MEM-XER) turned out to be 1 µg/mL.
